ChEMBL document CHEMBL1201862, “PubChem BioAssay data set” (2004)
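Where inhibition never reached the appropriate level, the endpoint shown equals the highest concentration tested. Otherwise, values were interpolated linearly from a five-concentration, 48-hour dose response in 96-well plates. The concentration for 50% growth inhibition is given as GI50.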 The source made the active and inactive calls. Cut-off read from the data, not from the text of the source: active = GI50 up to about 1.1 µM and inactive = higher.

Assays:
Experiment in all cases: NCI tumour cell line growth inhibition, 48 h
[1] = test system: 786-0
[2] = test system: A549
[3] = test system: ACHN
[4] = test system: BT-549
[5] = test system: CAKI-1
[6] = test system: CCRF-CEM
[7] = test system: COLO 205
[8] = test system: DU-145
[9] = test system: EKVX
[10] = test system: HCC 2998
[11] = test system: HCT-116
[12] = test system: HCT-15
[13] = test system: HL-60
[14] = test system: HOP-62
[15] = test system: HOP-92
[16] = test system: HT-29
[17] = test system: Hs-578T
[18] = test system: IGROV-1
[19] = test system: K562
[20] = test system: KM12
[21] = test system: LOX IMVI
[22] = test system: M14
[23] = test system: MCF7
[24] = test system: MDA-MB-231
[25] = test system: MDA-MB-435
[26] = test system: MDA-N
[27] = test system: MOLT-4
[28] = test system: Malme-3M
[29] = test system: NCI-H226
[30] = test system: NCI-H23
[31] = test system: NCI-H460
[32] = test system: NCI-H522
[33] = test system: NCI/ADR-RES
[34] = test system: OVCAR-3
[35] = test system: OVCAR-4
[36] = test system: OVCAR-5
[37] = test system: OVCAR-8
[38] = test system: PC-3
[39] = test system: RPMI-8226
[40] = test system: RXF 393
[41] = test system: SF-268
[42] = test system: SF-295
[43] = test system: SF-539
[44] = test system: SK-MEL-28
[45] = test system: SK-MEL-2
[46] = test system: SK-MEL-5
[47] = test system: SK-OV-3
[48] = test system: SN12C
[49] = test system: SNB-19
[50] = test system: SNB-75
[51] = test system: SR
[52] = test system: SW-620
[53] = test system: T47D
[54] = test system: TK-10
[55] = test system: U-251
[56] = test system: UACC-257
[57] = test system: UACC-62
[58] = test system: UO-31

COc1cc(C=C2N=C(c3ccccc3)N(n3c(-c4ccccc4)nc4ccccc4c3=O)C2=O)cc(OC)c1OC
GI50 [1]: 21.8 µM (inactive)
GI50 [2]: 36.9 µM (inactive)
GI50 [3]: 28.7 µM (inactive)
GI50 [4]: 16.4 µM (inactive)
GI50 [5]: 48.3 µM (inactive)
GI50 [6]: 48.5 µM (inactive)
GI50 [7]: 22 µM (inactive)
GI50 [8]: 27.6 µM (inactive)
GI50 [9]: 23.8 µM (inactive)
GI50 [10]: 30.7 µM (inactive)
GI50 [11]: 22.2 µM (inactive)
GI50 [12]: 31.5 µM
GI50 [13]: 49.1 µM (inactive)
GI50 [14]: 13.6 µM (inactive)
GI50 [15]: 14.5 µM (inactive)
GI50 [16]: 31.8 µM (inactive)
GI50 [17]: 15.8 µM (inactive)
GI50 [18]: 32.5 µM (inactive)
GI50 [19]: 45.8 µM (inactive)
GI50 [20]: 19.7 µM (inactive)
GI50 [21]: 21.6 µM (inactive)
GI50 [22]: 27.2 µM (inactive)
GI50 [23]: 22 µM (inactive)
GI50 [24]: 21.9 µM (inactive)
GI50 [25]: 24.3 µM (inactive)
GI50 [26]: 29 µM (inactive)
GI50 [27]: 30 µM (inactive)
GI50 [28]: 19.3 µM (inactive)
GI50 [29]: 25.6 µM (inactive)
GI50 [30]: 19.1 µM (inactive)
GI50 [31]: 20.3 µM (inactive)
GI50 [32]: 20.1 µM (inactive)
GI50 [33]: 38.9 µM (inactive)
GI50 [34]: 21.3 µM (inactive)
GI50 [35]: 27.4 µM (inactive)
GI50 [36]: 38.9 µM (inactive)
GI50 [37]: 21.1 µM (inactive)
GI50 [38]: 31.1 µM (inactive)
GI50 [39]: > 10 µM (inactive)
GI50 [40]: 12.1 µM (inactive)
GI50 [41]: 28.4 µM (inactive)
GI50 [42]: 19.5 µM (inactive)
GI50 [43]: 18.7 µM (inactive)
GI50 [44]: 17.7 µM (inactive)
GI50 [45]: 21.1 µM (inactive)
GI50 [46]: 23.4 µM (inactive)
GI50 [47]: 35.4 µM (inactive)
GI50 [48]: 16.9 µM (inactive)
GI50 [49]: 24.7 µM (inactive)
GI50 [50]: 23.1 µM (inactive)
GI50 [51]: 40.7 µM (inactive)
GI50 [52]: 31.9 µM (inactive)
GI50 [53]: 20.3 µM (inactive)
GI50 [54]: 45.9 µM (inactive)
GI50 [55]: > 10 µM (inactive)
GI50 [56]: 20.1 µM (inactive)
GI50 [57]: 22.3 µM (inactive)
GI50 [58]: 31 µM (inactive)
